Experimental data taken from PMC5641952 (ACS Medicinal Chemistry Letters, 2017).

Molecular target: MDM2 (Homo sapiens, UniProt Q00987)
Assay: Fluorescence polarization
Details: FP assay

| Structure (SMILES) | activity toward MDM2 (in words) |
| --- | --- |
| O=C(O)c1[nH]c2cc(Cl)ccc2c1C1C(=O)NCCCCCCCCCCCCCC(=O)N1Cc1ccc(F)cc1 (stereo not drawn) [1d] | only slightly or not active at all |
| O=C(O)c1[nH]c2cc(Cl)ccc2c1C1C(=O)NCCCCCCCCCCCCCC(=O)N1Cc1ccc(Cl)cc1 (stereo not drawn) [1f] | only slightly or not active at all |
| CCOC(=O)c1[nH]c2cc(Cl)ccc2c1C1C(=O)NCCCCCCCCCCCCCCCCCCCC(=O)N1Cc1ccc(OCc2ccc(Cl)c(Cl)c2)cc1 (stereo not drawn) [2k] | orders of magnitude less reactive or inactive |
